In patent publication US20260315464A1, “COMPOSITIONS, METHODS, AND SYSTEMS FOR MODULATING SPLICING OF MSH3” (REVIR THERAPEUTICS, INC., priority 2023, published 2026):

Test system: MSH3
Test: QPCR assay for levels of MSH3 upon compound treatment in HEK293T or AD293 cells (fold-change of MSH3 transcript, EC50 of MSH3 downregulation; total MSH3 exons 13/14, exons 20/21; Table 8)
Format: cell-based
Conditions: for mrna remaining at 1 µM / mrna remaining at 10 µM: Homo sapiens, fold-change of the MSH3 transcript, normalized to GAPDH; for mrna remaining at 1 µM: 1 μM compound; for mrna remaining at 10 µM: 10 μM compound; for EC50: EC50 of MSH3 downregulation, XtalPi
Procedure: HEK293T or AD293 cells were treated with Compound 274 at 1 μM and […]. RNA, cDNA and qPCR was prepared using TaqMan Cells-to-CT Express kit (ThermoFisher Scientific). Taqman assays (ThermoFisher Scientific) were used for quantification of total MSH3 exons 13/14 (cat #4351372, ID #: Hs00988993_ml), total MSH3 exons 20/21 (cat #4351372, ID #: Hs00989000_ml), exon 13/PE14A (Fwd: 5′-[…]; Rev: 5′-[…]; Probe: 5′-[…]) and exon 20/PE21A (Fwd: 5′-[…]; Rev: 5′-[…]; Probe: 5′-[…]) mRNA expression. Taqman GAPDH (cat #4448489, ID #: Hs02758991_g1) was used as a reference for data normalization.

Row | EC50 | SMILES | mrna remaining at 1 µM | mrna remaining at 10 µM
1 |  | CC(C)(O)Cn1cc(-c2cc3c(cn2)CN(c2ccc(OC4CC(C)(C)NC(C)(C)C4)nn2)C3=O)cn1 [Compound 21, 6-(1-(2-hydroxy-2-methylpropyl)-1H-pyrazol-4-yl)-2-(6-((2,2,6,6-tetramethylpiperidin-4-yl)oxy)pyridazin-3-yl)-2,3-dihydro-1H-pyrrolo[3,4-c]pyridin-1-one] | 54% | 58%
2 |  | Cc1nn(C)cc1-c1cc2c(cn1)CN(c1ccc(N(C)C3CC(C)(C)NC(C)(C)C3)nn1)C2=O [Compound 51, 6-(1,3-dimethyl-1H-pyrazol-4-yl)-2-(6-(methyl(2,2,6,6-tetramethylpiperidin-4-yl)amino)pyridazin-3-yl)-2,3-dihydro-1H-pyrrolo[3,4-c]pyridin-1-one] | 94% | 26%
3 |  | Cc1nn(C)cc1-c1cc2c(cn1)CN(c1cnc(N(C)[C@H]3C[C@]4(C)CC[C@](C)(C3)N4)nn1)C2=O [Compound 55, 6-(1,3-dimethyl-1H-pyrazol-4-yl)-2-(3-(((1R,3s,5S)-1,5-dimethyl-8-azabicyclo[3.2.1]octan-3-yl)(methyl)amino)-1,2,4-triazin-6-yl)-2,3-dihydro-1H-pyrrolo[3,4-c]pyridin-1-one] | 56% | 20%
4 |  | Cc1nn(C)cc1-c1cc2c(cn1)CN(c1ccc(OC3CC(C)(C)NC4(CC4)C3)nn1)C2=O (centres unmarked) [Compound 59, 6-(1,3-dimethyl-1H-pyrazol-4-yl)-2-(6-((5,5-dimethyl-4-azaspiro[2.5]octan-7-yl)oxy)pyridazin-3-yl)-2,3-dihydro-1H-pyrrolo[3,4-c]pyridin-1-one] | 101% | 29%
5 |  | CN(c1ccc(N2Cc3cnc(-c4cn(C)nc4C(F)(F)F)cc3C2=O)nn1)[C@H]1C[C@]2(C)CC[C@](C)(C1)N2 [Compound 61, 2-(6-(((1R,3s,5S)-1,5-dimethyl-8-azabicyclo[3.2.1]octan-3-yl)(methyl)amino)pyridazin-3-yl)-6-(1-methyl-3-(trifluoromethyl)-1H-pyrazol-4-yl)-2,3-dihydro-1H-pyrrolo[3,4-c]pyridin-1-one] | 44% | 18%
6 | 690 nM | Cc1nc(C)c(-c2cc3c(cn2)CN(c2ccc(N(C)[C@H]4C[C@]5(C)CC[C@](C)(C4)N5)nn2)C3=O)s1 [Compound 62, 2-(6-(((1R,3s,5S)-1,5-dimethyl-8-azabicyclo[3.2.1]octan-3-yl)(methyl)amino)pyridazin-3-yl)-6-(2,4-dimethylthiazol-5-yl)-2,3-dihydro-1H-pyrrolo[3,4-c]pyridin-1-one] | 18% | 8%
7 | 885 nM | Cc1nc(C)c(-c2cc3c(cn2)CN(c2ccc(O[C@H]4C[C@]5(C)CC[C@](C)(C4)N5)nn2)C3=O)s1 [Compound 69, 2-(6-(((1R,3s,5S)-1,5-dimethyl-8-azabicyclo[3.2.1]octan-3-yl)oxy)pyridazin-3-yl)-6-(2,4-dimethylthiazol-5-yl)-2,3-dihydro-1H-pyrrolo[3,4-c]pyridin-1-one] | 30% | 11%
8 |  | CN(c1ccc(N2Cc3cnc(-c4cnn(C)n4)cc3C2=O)nn1)[C@H]1C[C@]2(C)CC[C@](C)(C1)N2 [Compound 70, 2-(6-(((1R,3s,5S)-1,5-dimethyl-8-azabicyclo[3.2.1]octan-3-yl)(methyl)amino)pyridazin-3-yl)-6-(2-methyl-2H-1,2,3-triazol-4-yl)-2,3-dihydro-1H-pyrrolo[3,4-c]pyridin-1-one] | 139% | 56%
9 |  | CN(c1ncc(N2Cc3cnc(-c4cnn(C)n4)cc3C2=O)nn1)[C@H]1C[C@]2(C)CC[C@](C)(C1)N2 [Compound 73, 2-(3-(((1R,3s,5S)-1,5-dimethyl-8-azabicyclo[3.2.1]octan-3-yl)(methyl)amino)-1,2,4-triazin-6-yl)-6-(2-methyl-2H-1,2,3-triazol-4-yl)-2,3-dihydro-1H-pyrrolo[3,4-c]pyridin-1-one] | 85% | 70%
10 |  | Cn1cc(-c2cc3c(cn2)CN(c2ccc(O[C@H]4C[C@]5(C)CC[C@](C)(C4)N5)nn2)C3=O)c(C(F)(F)F)n1 [Compound 74, 2-(6-(((1R,3s,5S)-1,5-dimethyl-8-azabicyclo[3.2.1]octan-3-yl)oxy)pyridazin-3-yl)-6-(1-methyl-3-(trifluoromethyl)-1H-pyrazol-4-yl)-2,3-dihydro-1H-pyrrolo[3,4-c]pyridin-1-one] | 96% | 33%
11 |  | Cc1nn(C)cc1-c1cc2c(cn1)CN(c1ccc(OC3CC(C)(C)NC(C)(C)C3)nn1)C2=O [Compound 76, 6-(1,3-dimethyl-1H-pyrazol-4-yl)-2-(6-((2,2,6,6-tetramethylpiperidin-4-yl)oxy)pyridazin-3-yl)-2,3-dihydro-1H-pyrrolo[3,4-c]pyridin-1-one] | 98% | 20%
12 |  | Cc1nn(C)cc1-c1cc2c(cn1)CN(c1ccc(O[C@@H]3C[C@@]4(C)CC[C@](C)(N4)[C@@H]3F)nn1)C2=O [Compound 79, 6-(1,3-dimethyl-1H-pyrazol-4-yl)-2-(6-(((1S,2S,3R,5R)-2-fluoro-1,5-dimethyl-8-azabicyclo[3.2.1]octan-3-yl)oxy)pyridazin-3-yl)-2,3-dihydro-1H-pyrrolo[3,4-c]pyridin-1-one] | 92% | 31%
13 |  | Cc1nn(C)cc1-c1cc2c(c(Cl)n1)CN(c1ccc(N(C)[C@H]3C[C@]4(C)CC[C@](C)(C3)N4)nn1)C2=O [Compound 90, 4-chloro-6-(1,3-dimethyl-1H-pyrazol-4-yl)-2-(6-(((1R,3s,5S)-1,5-dimethyl-8-azabicyclo[3.2.1]octan-3-yl)(methyl)amino)pyridazin-3-yl)-2,3-dihydro-1H-pyrrolo[3,4-c]pyridin-1-one] | 38% | 18%
14 |  | Cn1cc(-c2cc3c(cn2)CN(c2ccc(OC4CC(C)(C)NC(C)(C)C4)nn2)C3=O)c(F)n1 [Compound 91, 6-(3-fluoro-1-methyl-1H-pyrazol-4-yl)-2-(6-((2,2,6,6-tetramethylpiperidin-4-yl)oxy)pyridazin-3-yl)-2,3-dihydro-1H-pyrrolo[3,4-c]pyridin-1-one] | 85% | 74%
15 |  | Cc1nn(C)cc1-c1cc2c(c(Cl)n1)CN(c1ccc(O[C@H]3C[C@]4(C)CC[C@](C)(C3)N4)nn1)C2=O [Compound 93, 4-chloro-6-(1,3-dimethyl-1H-pyrazol-4-yl)-2-(6-(((1R,3s,5S)-1,5-dimethyl-8-azabicyclo[3.2.1]octan-3-yl)oxy)pyridazin-3-yl)-2,3-dihydro-1H-pyrrolo[3,4-c]pyridin-1-one] | 91% | 72%
16 |  | Cc1nn(C)cc1-c1cc2c(cn1)CN(c1ccc(O[C@H]3C[C@]4(C)CC[C@](C)(C3)N4C)nn1)C2=O [Compound 94, 6-(1,3-dimethyl-1H-pyrazol-4-yl)-2-(6-(((1R,3s,5S)-1,5,8-trimethyl-8-azabicyclo[3.2.1]octan-3-yl)oxy)pyridazin-3-yl)-2,3-dihydro-1H-pyrrolo[3,4-c]pyridin-1-one] | 106% | 79%
17 |  | Cc1nn(C)nc1-c1cc2c(cn1)CN(c1ccc(O[C@H]3C[C@]4(C)CC[C@](C)(C3)N4)nn1)C2=O [Compound 96, 6-(2,5-dimethyl-2H-1,2,3-triazol-4-yl)-2-(6-(((1R,3s,5S)-1,5-dimethyl-8-azabicyclo[3.2.1]octan-3-yl)oxy)pyridazin-3-yl)-2,3-dihydro-1H-pyrrolo[3,4-c]pyridin-1-one] | 79% | 119%
18 |  | CC[C@]12CC[C@](C)(C[C@@H](Oc3ccc(N4Cc5cnc(-c6cn(C)nc6C)cc5C4=O)nn3)C1)N2 [Compound 98, 6-(1,3-dimethyl-1H-pyrazol-4-yl)-2-(6-(((1S,3R,5R)-1-ethyl-5-methyl-8-azabicyclo[3.2.1]octan-3-yl)oxy)pyridazin-3-yl)-2,3-dihydro-1H-pyrrolo[3,4-c]pyridin-1-one] | 83% | 25%
19 |  | Cn1cc(-c2cc3c(cn2)CN(c2ccc(O[C@H]4C[C@]5(C)CC[C@](C)(C4)N5)nn2)C3=O)cn1 [Compound 99, 2-(6-(((1R,3s,5S)-1,5-dimethyl-8-azabicyclo[3.2.1]octan-3-yl)oxy)pyridazin-3-yl)-6-(1-methyl-1H-pyrazol-4-yl)-2,3-dihydro-1H-pyrrolo[3,4-c]pyridin-1-one] | 90% | 86%
20 |  | CC[C@]12CC[C@](CC)(C[C@@H](Oc3ccc(N4Cc5cnc(-c6cn(C)nc6C)cc5C4=O)nn3)C1)N2 [Compound 100, 2-(6-(((1R,3s,5S)-1,5-diethyl-8-azabicyclo[3.2.1]octan-3-yl)oxy)pyridazin-3-yl)-6-(1,3-dimethyl-1H-pyrazol-4-yl)-2,3-dihydro-1H-pyrrolo[3,4-c]pyridin-1-one] | 65% | 11%
21 |  | Cn1ncc(-c2cc3c(c(Cl)n2)CN(c2ccc(O[C@H]4C[C@]5(C)CC[C@](C)(C4)N5)nn2)C3=O)n1 [Compound 106, 4-chloro-2-(6-(((1R,3s,5S)-1,5-dimethyl-8-azabicyclo[3.2.1]octan-3-yl)oxy)pyridazin-3-yl)-6-(2-methyl-2H-1,2,3-triazol-4-yl)-2,3-dihydro-1H-pyrrolo[3,4-c]pyridin-1-one] | 121% | 130%
